Test results reported in patent US10874752B2, “MIBG analogs and uses thereof” (Board of Regents of The University of Nebraska, priority 2015, dated 2020).

Key:
[1] = Stability in human serum (HPLC of extracts); type: in vitro ADME; settings: up to 24 h, ambient temperature or 37° C.
Protocol: (§1) Incubations: into a solution (1980 μL) of serum (mouse, human), buffer or cells media, a sample of (17a), (185-390 kBq) in 15-20 μL of 25% EtOH/PB (100 mM, pH 6.1) was added; the resulting mixture was briefly vortexed and kept (up to 24 h) at ambient temperature or inside the incubator (37° C./˜5% CO2). At each time point, a volume of 1 mL was withdrawn, the extract of sample prepared and analyzed by HPLC.
(§2) Preparation of extracts: a sample (1 mL) from each incubated mixture with compound (17a) was treated with MeCN (1 mL), vortexed, and centrifuged (2,000 rpm, 15 min). The supernatant was removed and the radioactivity measured. Aliquots of supernatant (250-500 μL) were acidified to pH˜6 with 0.05 N TFA (2-8 μL). The excess of MeCN was evaporated with a stream of nitrogen and water (100 μL) added. A mixture was passed through a 0.2μ filter and each sample (˜100 μL, 95-185 kBq) injected on HPLC system.
(§3) HPLC analysis of extracts: continued on Columbus C18 100 Å (5 μm, 4.6×250 mm) column; eluted at 0.8 mL/min with a linear gradient of MeCN from 0 to 95% over 60 min and 95% MeCN was kept for a period of further 20 min, detecting the radioactivity (Bioscan NaI(T)). Both solvents contained 0.07% TFA (v/v).

[2] = Stability in mouse serum (HPLC of extracts); type: in vitro ADME; settings: up to 24 h, ambient temperature or 37° C.
Protocol: as §1, §2, §3

[3] = cited from earlier work
SK-N-SH cells = assay: Uptake by SK-N-SH cells competed by MIBG; type: cell-based, human; settings: competition with MIBG (FIG. 16)
SK-N-SH NB cells = assay: Subcellular distribution of 125I in SK-N-SH NB cells; type: cell-based, human; settings: SK-N-SH NB cells exposed at 80 kBq/mL for 1 h, harvested 24 h later
Text: (§4) Conjugate 17b was used for further testing. […] All drugs were designed so that they produce either 5-radioiodo-2′-deoxyuridine [RIUdR] or its 5′-monophosphate. Both metabolites can participate in the DNA synthesis allowing deposits of high LET radiation directly within the DNA structure. RIUdR, incorporated into the DNA of cancer cells in place of thymidine, is retained there for the life of the cell. It is extraordinarily lethal when labeled with Auger-electron-emitting radioiodines, which produce a cascade of monoenergetic electrons known as conversion and Auger electrons. These electrons deposit their energy within a tiny sphere around the decaying atom, i.e., the effective distance of Auger electrons is less than the diameter of the cancer cell nucleus. As a result, their cytotoxicity is dependent on the intranuclear localization, i.e., within the DNA or immediate vicinity of the DNA. Radiotoxicity of several reagents was tested in SK-N-SH cells. Tested drugs eradicate NB cells more efficiently than MIBG.

human NB SK-N-SH cells = assay: Radiotoxicity, clonogenic assay in SK-N-SH cells; type: cell-based
Text: as §4
FIG. 14A-C show results of a pilot radiotoxicity study comparing the reproductive integrity of colonies of human NB SK-N-SH cells treated with conjugate 17b (radiolabeled with ^125I) and ^125IMIBG at 37 kBq/mL, two weeks after treatment.

SMILES: N=C(N)NCCC(=O)OC[C@H]1O[C@@H](n2cc([125I])c(=O)[nH]c2=O)C[C@@H]1O [17a, 5-[^125I]-Iodo-5′-O-propionylguanidino-2′-deoxyuridine]
- stability in human serum [1]: limited
- stability in mouse serum [2]: limited

SMILES: N=C(N)NCc1cccc([131I])c1 [^131IMIBG, ^131I-metaiodobenzylguanidine]
- long-term survivors developing thyroid disorders ([3]; long-term survivors treated with 131IMIBG): over 80%
- maximum tolerated dose ([3]; patients with neuroblastoma): > 600 MBq/kg

SMILES: N=C(N)NCCCCCC(=O)OC[C@H]1O[C@@H](n2cc([125I])c(=O)[nH]c2=O)C[C@@H]1O [conjugate 17b, 5-[^125I]-Iodo-5′-O-hexanoylguanidino-2′-deoxyuridine]
- uptake by SK-N-SH cells (SK-N-SH cells): competed by MIBG
- subcellular distribution of 125I (SK-N-SH NB cells): All ^125I is associated with the DNA fraction
- retention within the cell (human NB SK-N-SH cells): trapped within the cell
- radiotoxicity (reproductive integrity of colonies) (human NB SK-N-SH cells; 37 kBq/mL, two weeks after treatment, compared with 125IMIBG): far more radiotoxic
- cells receiving a lethal dose of radiation, clonogenic assay (human NB SK-N-SH cells; 1 h with the drug, compared with 125IMIBG): more cells receive a lethal dose of radiation
